Activity calls are given as the source filed them. Peptide text beside a SMILES is read from it. * marks the point of attachment. Bz = O=C(c1ccccc1)*
Legend:
[1] = biological target: Nicotinic acetylcholine receptor alpha9/alpha10 (Rattus norvegicus, UniProt P43144+Q9JLB5); assay: Inhibition of rat alpha9alpha10 nAChR expressed in Xenopus laevis oocytes assessed as inhibition of Ach-induced response at -80 mV holding potential preincubated for 5 mins followed by Ach stimulation by two electrode voltage-clamp assay; format: cell-based, Oocyte
[2] = biological target: T1, GABA-B receptor (Homo sapiens) (UniProt Q9UBS5+O75899); assay: Activation of human GABAB1/GABAB2 expressed in HEK293 cells co-transfected with rat CaV2.2 channel assessed as reduction in CaV2.2-mediated peak-current amplitude in response to depolarizing pulse at 1 nM by whole cell patch clamp assay relative to control; format: cell-based; settings: HEK293T
[3] = Selectivity index, ratio of IC50 for inhibition of rat alpha9alpha10 nAChR expressed in Xenopus laevis oocytes to IC50 for activation of human GABAB1/GABAB2 expressed in HEK293 cells co-transfected with rat CaV2.2 channel assessed as reduction in CaV2.2-mediated peak Ba2+ current amplitude; format: cell-based
[4] = system: Rattus norvegicus; assay: Analgesic activity in Sprague-Dawley rat model of PNL injury-induced neuropathic pain assessed as pain threshold elevation percentage at 0.3 nmol/kg, IM administered as single dose measured after 2 to 2.5 hrs post dose; format: functional; settings: time 2-2.5 hrs
[5] = system: Rattus norvegicus; assay: Analgesic activity in Sprague-Dawley rat model of chronic constriction injury-induced neuropathic pain assessed as increase in pain threshold elevation percentage at 0.3 to 15 nmol/kg, IM administered as single dose measured after 2 to 2.5 hrs post dose; format: functional, organism-based; settings: dose 0.3-15 nmol/kg, time 2-2.5 hrs
[6] = system: Neuron; assay: Inhibition of TTX-sensitive sodium channel in Sprague-Dawley rat DRG neuron at 10 uM at -10 mV holding potential by whole cell patch clamp technique; format: tissue-based
[7] = biological target: T1, GABA-B receptor (Homo sapiens); assay: Activation of human GABAB1/GABAB2 expressed in HEK293 cells co-transfected with rat CaV2.2 channel assessed as reduction in CaV2.2-mediated Ba2+ peak-current amplitude in response to depolarizing pulse in presence of 1 uM GABAB receptor antagonist CGP55845 by whole cell patch clamp assay; format: cell-based; settings: HEK293T, time 6.0 hrs
[8] = Selectivity index, ratio of IC50 for inhibition of human alpha9alpha10 nAChR expressed in Xenopus laevis oocytes to IC50 for activation of human GABAB1/GABAB2 expressed in HEK293 cells co-transfected with rat CaV2.2 channel assessed as reduction in CaV2.2-mediated peak-current amplitude; format: cell-based
[9] = system: Rattus norvegicus; assay: Analgesic activity in Sprague-Dawley rat model of PNL injury-induced neuropathic pain assessed as pain threshold elevation percentage at 1.5 nmol/kg, IM administered as single dose measured after 2 to 2.5 hrs post dose; format: functional; settings: time 2-2.5 hrs
[10] = species: Rattus norvegicus; assay: Inhibition of TTX-resistant sodium channel in Sprague-Dawley rat DRG neuron at 10 uM at 10 mV holding potential by whole cell patch clamp technique
[11] = biological target: Neuronal acetylcholine receptor; alpha9/alpha10 (Homo sapiens, UniProt Q9GZZ6+Q9UGM1); assay: Inhibition of human alpha9alpha10 nAChR expressed in Xenopus laevis oocytes assessed as inhibition of Ach-induced response at -80 mV holding potential preincubated for 5 mins followed by Ach stimulation by two electrode voltage-clamp assay; format: cell-based, Oocyte
[12] = biological target: GABA-B receptor (Homo sapiens, UniProt O75899+Q9UBS5); assay: Activation of human GABAB1/GABAB2 expressed in HEK293 cells co-transfected with rat CaV2.2 channel assessed as reduction in CaV2.2-mediated peak-current amplitude in response to the depolarizing pulse by whole cell patch clamp assay; format: cell-based, HEK293T
[13] = system: Rattus norvegicus; assay: Analgesic activity in Sprague-Dawley rat model of PNL injury-induced neuropathic pain assessed as pain threshold elevation percentage at 15 nmol/kg, IM administered as single dose measured after 2 to 2.5 hrs post dose; format: functional; settings: time 2-2.5 hrs
[14] = biological target: Neuronal acetylcholine receptor; alpha2/beta2 (Rattus norvegicus) (UniProt P12389+P12390); assay: Inhibition of rat alpha2beta2 nAChR expressed in Xenopus laevis oocytes assessed as inhibition of Ach-induced response at 10 uM at -80 mV holding potential preincubated for 5 mins followed by Ach stimulation by two electrode voltage-clamp assay relative to control; format: cell-based; settings: Oocyte
[15] = biological target: Neuronal acetylcholine receptor; alpha3/beta2 (Rattus norvegicus) (UniProt P04757+P12390); assay: Inhibition of rat alpha3beta2 nAChR expressed in Xenopus laevis oocytes assessed as inhibition of Ach-induced response at 10 uM at -80 mV holding potential preincubated for 5 mins followed by Ach stimulation by two electrode voltage-clamp assay relative to control; format: cell-based; settings: Oocyte
[16] = biological target: T1, GABA-B receptor (Homo sapiens); assay: Activation of human GABAB1/GABAB2 expressed in HEK293 cells co-transfected with rat CaV2.2 channel assessed as reduction in CaV2.2-mediated peak-current amplitude in response to depolarizing pulse at 1 nM in presence of with 10 uM baclofen by whole cell patch clamp assay relative to control; format: cell-based; settings: HEK293T, filed as activator
[17] = biological target: Neuronal acetylcholine receptor; alpha4/beta2 (Rattus norvegicus) (UniProt P09483+P12390); assay: Inhibition of rat alpha4beta2 nAChR expressed in Xenopus laevis oocytes assessed as inhibition of Ach-induced response at 10 uM at -80 mV holding potential preincubated for 5 mins followed by Ach stimulation by two electrode voltage-clamp assay relative to control; format: cell-based; settings: Oocyte
[18] = biological target: Neuronal acetylcholine receptor; alpha2/beta4 (Rattus norvegicus) (UniProt P12389+P12392); assay: Inhibition of rat alpha2beta4 nAChR expressed in Xenopus laevis oocytes assessed as inhibition of Ach-induced response at 10 uM at -80 mV holding potential preincubated for 5 mins followed by Ach stimulation by two electrode voltage-clamp assay relative to control; format: cell-based; settings: Oocyte
[19] = biological target: Neuronal acetylcholine receptor subunit alpha-7 (Rattus norvegicus) (UniProt Q05941); assay: Inhibition of rat alpha7 nAChR expressed in Xenopus laevis oocytes assessed as inhibition of Ach-induced response at 10 uM at -80 mV holding potential preincubated for 5 mins followed by Ach stimulation by two electrode voltage-clamp assay relative to control; format: cell-based; settings: Oocyte
[20] = biological target: Neuronal acetylcholine receptor; alpha3/beta4 (Rattus norvegicus) (UniProt P04757+P12392); assay: Inhibition of rat alpha3beta4 nAChR expressed in Xenopus laevis oocytes assessed as inhibition of Ach-induced response at 10 uM at -80 mV holding potential preincubated for 5 mins followed by Ach stimulation by two electrode voltage-clamp assay relative to control; format: cell-based; settings: Oocyte
[21] = biological target: Voltage-dependent N-type calcium channel subunit alpha-1B (Rattus norvegicus) (UniProt Q02294); assay: Inhibition of rat CaV2.2 channel expressed in HEK293T cells assessed as reduction in CaV2.2-mediated peak-current amplitude in response to depolarizing pulse at 10 uM by whole cell patch clamp assay relative to control; format: cell-based

Sequence of Nicotinic acetylcholine receptor alpha9/alpha10 (P43144 whole entry): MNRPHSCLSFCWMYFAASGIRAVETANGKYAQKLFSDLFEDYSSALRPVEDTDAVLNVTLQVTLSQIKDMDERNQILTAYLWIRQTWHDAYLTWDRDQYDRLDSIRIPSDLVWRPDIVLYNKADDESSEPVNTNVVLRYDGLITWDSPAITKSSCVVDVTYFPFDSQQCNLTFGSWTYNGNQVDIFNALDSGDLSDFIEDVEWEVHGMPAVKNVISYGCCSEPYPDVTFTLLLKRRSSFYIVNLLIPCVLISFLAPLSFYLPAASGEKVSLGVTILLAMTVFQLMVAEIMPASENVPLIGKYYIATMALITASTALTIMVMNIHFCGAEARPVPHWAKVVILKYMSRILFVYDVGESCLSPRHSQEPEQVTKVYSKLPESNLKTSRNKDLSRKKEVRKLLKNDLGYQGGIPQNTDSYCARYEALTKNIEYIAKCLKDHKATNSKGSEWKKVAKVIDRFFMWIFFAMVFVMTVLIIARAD
Sequence of Nicotinic acetylcholine receptor alpha9/alpha10 (Q9JLB5 whole entry): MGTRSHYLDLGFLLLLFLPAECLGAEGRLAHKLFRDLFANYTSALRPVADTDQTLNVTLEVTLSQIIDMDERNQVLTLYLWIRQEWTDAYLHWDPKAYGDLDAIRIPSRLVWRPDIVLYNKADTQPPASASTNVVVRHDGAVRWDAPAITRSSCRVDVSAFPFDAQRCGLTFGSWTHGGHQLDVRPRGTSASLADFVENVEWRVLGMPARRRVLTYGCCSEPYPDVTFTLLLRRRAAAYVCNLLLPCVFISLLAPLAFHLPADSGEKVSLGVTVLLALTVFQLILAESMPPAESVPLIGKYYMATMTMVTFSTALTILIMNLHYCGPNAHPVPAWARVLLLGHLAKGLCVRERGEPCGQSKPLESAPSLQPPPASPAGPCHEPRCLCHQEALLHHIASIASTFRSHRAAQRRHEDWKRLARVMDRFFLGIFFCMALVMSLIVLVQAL
Sequence of GABA-B receptor (Q9UBS5 whole entry): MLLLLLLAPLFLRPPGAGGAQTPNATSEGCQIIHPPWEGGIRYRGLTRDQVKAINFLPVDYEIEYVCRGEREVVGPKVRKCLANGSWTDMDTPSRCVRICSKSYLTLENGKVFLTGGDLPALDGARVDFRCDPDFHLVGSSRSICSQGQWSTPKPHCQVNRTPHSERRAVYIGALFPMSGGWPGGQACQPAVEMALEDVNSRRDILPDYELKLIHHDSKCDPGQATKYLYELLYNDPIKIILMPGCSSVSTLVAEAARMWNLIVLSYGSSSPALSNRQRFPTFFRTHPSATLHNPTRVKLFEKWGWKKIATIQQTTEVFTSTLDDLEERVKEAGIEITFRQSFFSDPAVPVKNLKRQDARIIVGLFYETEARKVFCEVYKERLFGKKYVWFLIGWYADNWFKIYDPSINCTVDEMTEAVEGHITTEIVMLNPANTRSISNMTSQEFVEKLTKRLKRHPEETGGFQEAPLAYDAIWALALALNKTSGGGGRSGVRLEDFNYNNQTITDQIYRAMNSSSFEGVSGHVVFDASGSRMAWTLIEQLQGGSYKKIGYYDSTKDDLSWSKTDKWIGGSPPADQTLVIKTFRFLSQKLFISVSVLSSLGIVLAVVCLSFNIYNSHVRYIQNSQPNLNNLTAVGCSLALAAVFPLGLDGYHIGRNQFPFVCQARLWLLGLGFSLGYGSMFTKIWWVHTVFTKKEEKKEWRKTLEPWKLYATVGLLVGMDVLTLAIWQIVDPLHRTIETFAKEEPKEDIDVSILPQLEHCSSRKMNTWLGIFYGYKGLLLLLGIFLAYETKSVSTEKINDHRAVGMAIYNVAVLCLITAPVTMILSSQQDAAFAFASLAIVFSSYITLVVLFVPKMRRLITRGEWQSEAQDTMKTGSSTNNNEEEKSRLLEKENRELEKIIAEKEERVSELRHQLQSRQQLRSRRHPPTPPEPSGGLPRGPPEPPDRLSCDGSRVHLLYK
Sequence of GABA-B receptor (O75899 whole entry): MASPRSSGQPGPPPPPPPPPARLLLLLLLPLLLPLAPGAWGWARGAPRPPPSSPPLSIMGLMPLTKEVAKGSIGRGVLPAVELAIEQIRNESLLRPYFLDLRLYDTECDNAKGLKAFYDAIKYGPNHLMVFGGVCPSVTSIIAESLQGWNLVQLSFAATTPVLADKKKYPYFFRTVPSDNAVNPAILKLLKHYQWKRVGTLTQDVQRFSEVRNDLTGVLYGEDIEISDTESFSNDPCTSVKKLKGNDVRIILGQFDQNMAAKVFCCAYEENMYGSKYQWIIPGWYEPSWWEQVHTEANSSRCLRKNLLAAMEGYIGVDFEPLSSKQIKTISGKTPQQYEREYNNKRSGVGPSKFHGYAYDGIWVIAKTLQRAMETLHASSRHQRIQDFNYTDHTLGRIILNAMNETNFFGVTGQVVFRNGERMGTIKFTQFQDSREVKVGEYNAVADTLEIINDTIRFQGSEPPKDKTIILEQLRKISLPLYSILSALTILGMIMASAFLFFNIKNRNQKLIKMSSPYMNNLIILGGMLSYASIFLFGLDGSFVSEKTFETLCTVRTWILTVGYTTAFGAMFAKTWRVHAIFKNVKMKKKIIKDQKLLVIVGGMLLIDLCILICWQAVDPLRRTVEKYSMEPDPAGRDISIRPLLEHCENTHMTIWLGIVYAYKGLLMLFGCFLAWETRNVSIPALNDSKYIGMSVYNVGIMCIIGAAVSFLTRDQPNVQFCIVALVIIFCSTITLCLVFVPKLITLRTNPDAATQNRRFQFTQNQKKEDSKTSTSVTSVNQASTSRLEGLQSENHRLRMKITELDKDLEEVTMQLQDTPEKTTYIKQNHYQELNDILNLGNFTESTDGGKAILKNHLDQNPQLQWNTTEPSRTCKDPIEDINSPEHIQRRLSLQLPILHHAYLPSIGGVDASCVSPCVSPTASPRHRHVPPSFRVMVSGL
Sequence of Neuronal acetylcholine receptor; alpha9/alpha10 (Q9UGM1 whole entry): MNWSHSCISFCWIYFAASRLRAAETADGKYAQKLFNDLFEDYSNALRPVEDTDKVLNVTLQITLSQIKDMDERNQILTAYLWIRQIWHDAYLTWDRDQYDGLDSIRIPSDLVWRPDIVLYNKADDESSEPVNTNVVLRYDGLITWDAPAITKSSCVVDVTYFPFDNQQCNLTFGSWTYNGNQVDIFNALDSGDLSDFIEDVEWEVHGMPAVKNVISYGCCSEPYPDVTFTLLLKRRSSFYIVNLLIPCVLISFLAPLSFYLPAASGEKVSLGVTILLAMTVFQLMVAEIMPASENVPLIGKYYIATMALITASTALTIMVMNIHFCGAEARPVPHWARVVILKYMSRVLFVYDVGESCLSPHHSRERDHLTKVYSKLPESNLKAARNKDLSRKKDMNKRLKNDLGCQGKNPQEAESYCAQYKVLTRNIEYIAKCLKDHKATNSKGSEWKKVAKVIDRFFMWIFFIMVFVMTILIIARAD
Sequence of Neuronal acetylcholine receptor; alpha9/alpha10 (Q9GZZ6 whole entry): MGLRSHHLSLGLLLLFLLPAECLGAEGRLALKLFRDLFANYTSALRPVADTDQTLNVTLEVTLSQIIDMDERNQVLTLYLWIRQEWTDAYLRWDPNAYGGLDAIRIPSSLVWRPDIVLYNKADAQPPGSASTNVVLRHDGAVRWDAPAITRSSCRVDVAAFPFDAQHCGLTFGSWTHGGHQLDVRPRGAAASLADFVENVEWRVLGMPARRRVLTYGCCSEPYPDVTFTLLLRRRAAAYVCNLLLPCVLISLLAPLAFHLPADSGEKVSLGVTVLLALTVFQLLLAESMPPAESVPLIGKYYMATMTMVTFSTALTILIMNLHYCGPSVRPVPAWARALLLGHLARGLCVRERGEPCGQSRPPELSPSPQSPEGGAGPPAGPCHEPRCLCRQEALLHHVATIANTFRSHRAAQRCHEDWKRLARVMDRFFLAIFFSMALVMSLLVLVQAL
Sequence of Neuronal acetylcholine receptor subunit alpha-7 (Rattus norvegicus) (Q05941 whole entry): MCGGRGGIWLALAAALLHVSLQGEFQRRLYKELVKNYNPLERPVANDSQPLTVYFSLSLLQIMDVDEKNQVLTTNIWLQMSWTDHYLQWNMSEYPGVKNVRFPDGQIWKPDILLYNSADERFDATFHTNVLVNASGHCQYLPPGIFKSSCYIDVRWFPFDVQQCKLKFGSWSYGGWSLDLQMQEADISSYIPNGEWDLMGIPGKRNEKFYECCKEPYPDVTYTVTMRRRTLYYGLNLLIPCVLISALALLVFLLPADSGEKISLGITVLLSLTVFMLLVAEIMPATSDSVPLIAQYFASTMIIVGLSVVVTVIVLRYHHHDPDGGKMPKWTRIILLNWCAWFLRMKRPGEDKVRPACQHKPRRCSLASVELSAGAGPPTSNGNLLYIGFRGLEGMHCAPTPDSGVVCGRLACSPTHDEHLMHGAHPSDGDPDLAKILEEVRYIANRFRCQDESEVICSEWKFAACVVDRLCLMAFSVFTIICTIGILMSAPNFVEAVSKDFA

## CC[C@H](C)[C@H](NC(=O)[C@H](CCC(=O)O)NC(=O)[C@@H]1CCCN1C(=O)[C@H](Cc1cnc[nH]1)NC(=O)[C@H](CC(=O)O)NC(=O)[C@H](Cc1ccc(O)cc1)NC(=O)[C@H](CC(N)=O)NC(=O)[C@H](CS)NC(=O)[C@H](CCCNC(=N)N)NC(=O)[C@@H]1CCCN1C(=O)[C@H](CC(=O)O)NC(=O)[C@H](CO)NC(=O)[C@H](CS)NC(=O)[C@H](CS)NC(=O)CN)C(=O)N[C@@H](CS)C(N)=O
[1]
  IC50: 28.3 nM
[2]
  inhibition: 18.8%
[3]
  Ratio IC50: 11.8
[4]
  Activity: 12.2%
[5]
  Activity: Active
[6]
  inhibition: inactive
[7]
  Activity: inactive
[8]
  Ratio IC50: 417
[9]
  Activity: 25.6%
[10]
  inhibition: inactive
[11]
  IC50: 1000 nM
[12]
  IC50: 2.4 nM
[13]
  Activity: 51.1%

## CC[C@H](C)[C@H](NC(=O)[C@H](CCC(=O)O)NC(=O)[C@@H]1CCCN1C(=O)[C@H](Cc1cnc[nH]1)NC(=O)[C@H](CC(=O)O)NC(=O)[C@H](Cc1ccc(O)cc1)NC(=O)[C@H](CC(N)=O)NC(=O)[C@H](CS)NC(=O)[C@H](CCCNC(=N)N)NC(=O)[C@@H]1CCCN1C(=O)[C@H](CC(=O)O)NC(=O)[C@H](CO)NC(=O)[C@H](CS)NC(=O)[C@H](CS)NC(=O)CNC(=O)c1ccccc1)C(=O)N[C@@H](CS)C(N)=O
[8]
  Ratio IC50: > 10000
[11]
  IC50: 12500 nM
[12]
  IC50: 1.2 nM

## CC[C@H](C)[C@H](NC(=O)[C@H](CCC(=O)O)NC(=O)[C@@H]1CCCN1C(=O)[C@H](Cc1cnc[nH]1)NC(=O)[C@H](CC(=O)O)NC(=O)[C@H](Cc1ccc(O)cc1)NC(=O)[C@H](CCCNC(=N)N)NC(=O)[C@H](CS)NC(=O)[C@H](CCCNC(=N)N)NC(=O)[C@@H]1CCCN1C(=O)[C@H](CC(=O)O)NC(=O)[C@H](CO)NC(=O)[C@H](CS)NC(=O)[C@H](CS)NC(=O)CNC(C)=O)C(=O)N[C@@H](CS)C(N)=O (Ac-GCCSDPRCRYDHPEIC-NH2)
[1]
  IC50: 2420 nM
[3]
  Ratio IC50: 128
[12]
  IC50: 18.9 nM
[13]
  Activity: 24.8%

## CC[C@H](C)[C@H](NC(=O)[C@H](CCC(=O)O)NC(=O)[C@@H]1CCCN1C(=O)[C@H](Cc1cnc[nH]1)NC(=O)[C@H](CC(=O)O)NC(=O)[C@H](Cc1ccc(O)cc1)NC(=O)[C@H](CCCNC(=N)N)NC(=O)[C@H](CS)NC(=O)[C@H](CCCNC(=N)N)NC(=O)[C@@H]1CCCN1C(=O)[C@H](CC(=O)O)NC(=O)[C@H](CO)NC(=O)[C@H](CS)NC(=O)[C@H](CS)NC(=O)CNC(=O)c1ccccc1)C(=O)N[C@@H](CS)C(N)=O (Bz-GCCSDPRCRYDHPEIC-NH2)
[14]
  inhibition: > 50%
[1]
  IC50: 875 nM
[15]
  inhibition: > 50%
[16]
  inhibition: 67.4%
[2]
  inhibition: 39.7%
[3]
  Ratio IC50: 4380
[17]
  inhibition: > 50%
[6]
  inhibition: inactive
[7]
  Activity: inactive
[8]
  Ratio IC50: > 25000
[10]
  inhibition: inactive
[18]
  inhibition: > 50%
[19]
  inhibition: > 50%
[20]
  inhibition: > 50%
[11]
  IC50: 5930 nM
[12]
  IC50: 0.2 nM
[13]
  Activity: 80%
[21]
  inhibition: 2.2%

Source: ChEMBL document CHEMBL4680110 (2018)
